Patent publication US10933057B2 (priority 2017, dated 2021)

Test system: patients
Set-up: species or system human
Details: in vivo

`CCCCC(C)(O)C/C=C/[C@H]1[C@H](O)CC(=O)[C@@H]1CCCCCCC(=O)OC` (mixture of isomers) [Misoprostol] was tested, and the “Pain (No pain −, Pain +)” value was “+”.
